Data published in patent publication US12486259B2, “FXR agonist having pyrazine structure, and preparation method and use” (JIANGSU TASLY DIYI PHARMACEUTICAL CO., LTD., priority 2020, dated 2025).

Tested on: C57/BL6 mice fed MCD diet
Experiment: Pharmacodynamic test in methionine-choline deficient diet (MCD) model of non-alcoholic fatty liver disease
Format: in vivo
Conditions: for Weight, 0 week / Food intake, 1 week / Weight, 1 week / Food intake, 2 weeks / Weight, 2 weeks / Food intake, 3 weeks / Weight, 3 weeks / Food intake, 4 weeks / Weight, 4 week / liver weight / liver/body weight / ALT, 3 weeks / AST, 3 weeks / ALT, 4 weeks / AST, 4 weeks / HDL (blood lipid) / LDL (blood lipid) / TC (blood lipid) / TG (blood lipid) / HE score / Sirius red staining area / liver TC / liver TG: MCD mice, obeticholic acid 40 mpk; for Weight, 0 week / Weight, 1 week / Weight, 2 weeks / Weight, 3 weeks / Weight, 4 week: TM compounds 30 mpk, once daily by gavage; for Food intake, 1 week / Food intake, 2 weeks / Food intake, 3 weeks / Food intake, 4 weeks / liver weight / liver/body weight / ALT, 3 weeks / AST, 3 weeks / ALT, 4 weeks / AST, 4 weeks / HDL (blood lipid) / LDL (blood lipid) / TC (blood lipid) / TG (blood lipid) / HE score / Sirius red staining area / liver TC / liver TG: TM 30 mpk; for Food intake, 1 week / Food intake, 2 weeks / Food intake, 3 weeks / Food intake, 4 weeks / ALT, 3 weeks / AST, 3 weeks / ALT, 4 weeks / AST, 4 weeks: gavage; for Food intake, 4 weeks / Weight, 4 week / ALT, 4 weeks / AST, 4 weeks / HE score / Sirius red staining area: 4 weeks; for liver weight / liver/body weight / HDL (blood lipid) / LDL (blood lipid) / TC (blood lipid) / TG (blood lipid) / liver TC / liver TG: after 4 weeks; for ALT, 3 weeks / AST, 3 weeks / ALT, 4 weeks / AST, 4 weeks / HDL (blood lipid) / LDL (blood lipid) / TC (blood lipid) / TG (blood lipid): blood; for HE score: liver pathology score (Table 12 criteria); for Sirius red staining area / liver TC / liver TG: liver; for blood lipid levels (in words) / liver triglyceride and cholesterol content (in words) / liver weight and liver/body weight (in words): after 4 weeks of MCD and compounds treatment; for ALT and AST compared to the model group (in words): three weeks after MCD and compounds treatment
Method: Animal strain: C57/BL6, Animal Grade: SPF Grade, Gender: male, Animal Age: 8 weeks old, Animals Received Date: 2018 Sep. 28, Animal Source: Shanghai Lingchang Biotechnology Co. Ltd., Animal Certificate No: SCXK (Shanghai)2013-0018 2013001836799, Mouse feeding Environment: temperature 20-26° C., humidity 40-70%, 12 hour day and night cycle.
5% Solutol HS15/Normal saline: after Solutol HS15 (polyethylene glycol 15 hydroxystearate solubilizer) is dissolved in a water bath at 37° C., 5 ml of it is dissolved in 100 ml of normal saline, thoroughly stirred for later use.
Obeticholic acid/5% Solutol HS15/Normal saline: 0.15 ml Solutol HS15 is added to accurately weighed 12 mg obeticholic acid to fully dissolve it, and 2.85 ml normal saline is added, vigorously mixed and dissolved by the ultrasound. • TM-01 Group/5% Solutol HS15/Normal saline: 2.5 ml of 6 mg/ml TM-01 suspension is taken, 2.5 ml of 5% Solutol HS15/normal saline is added, and the mixture is mixed well. • TM-02 Group/5% Solutol HS15/Normal saline: 2.5 ml of 6 mg/ml TM-02 suspension is taken, 2.5 ml of 5% Solutol HS15/normal saline is added, and the mixture is mixed well. • TM-06 Group/5% Solutol HS15/Normal saline: 2.5 ml of 6 mg/ml TM-06 suspension is taken, 2.5 ml of 5% Solutol HS15/Normal saline is added, and the mixture is mixed well. • TM-09 Group/5% Solutol HS15/Normal saline: 2.5 ml of 6 mg/ml TM-09 suspension is taken, 2.5 ml of 5% Solutol HS15/Normal saline is added, and the mixture is mixed well.
Menstruum and test compounds are administered by gavage at a dose volume of 10 ml/kg;
After reaching the animal house, 70 8-week-old C57/BL6 mice are fed adaptively and randomly divided into 7 groups according to body weight after the average body weight reaches 23 g. They are given the model feed. The first group receives the control diet MCS and the remaining groups receive the MCD diet, while each group of mice receives compound treatment as follows: • Group 1. Control Group: MCS, menstruum, administered once daily by gavage; • Group 2. Model Group: MCD, menstruum, administered once daily by gavage; • Group 3. Obeticholic acid group: MCD, 40 mpk obeticholic acid, administered once daily by gavage; • Group 4. TM-01 Group: MCD, 30 mpk TM-01, administered once daily by gavage; • Group 5. TM-02 Group: MCD, 30 mpk TM-02, administered once daily by gavage; • Group 6. TM-06 Group: MCD, 30 mpk TM-06, administered once daily by gavage; • Group 7. TM-09 Group: MCD, 30 mpk TM-09, administered once daily by gavage; 2.4 Experimental Methods
Body weight and food intake are measured weekly during the experiment. Twenty-one days after administration, tail tips are bled with microcapillaries for AST, ALT measurements. Twenty-eight days after administration, mice are terminated, hearts are bled, and liver tissues are collected and weighed. One portion is snap frozen with liquid nitrogen for subsequent analysis and the other portion are fixed for pathological analysis.
Mouse blood is centrifuged at 5000 rpm for 10 minutes and supernatants are collected for determination of TG (triglycerides), TC (total cholesterol), HDL (high density lipoprotein), LDL (low density lipoprotein), AST (aspartate aminotransferase) and ALT (alanine aminotransferase).
AST and ALT after administration for three and four weeks are determined according to the instructions of kit. The blood lipid index 4 weeks after administration is sent to Adicon Medical Laboratory Co. Ltd. for detection.
The livers are removed from −80° C., homogenized in PBS (phosphate buffered saline), extracted with chloroform methanol organic phase, and subjected to TC and TG assays using the kit, normalized for protein content.
Four weeks after administration, the mice are anesthetized. The heart is bled, the liver is isolated and weighed. The right lobe is snapfrozen with liquid nitrogen and stored at −80° C. for liver lipid analysis. The left lobe is isolated and fixed in 10% formalin for subsequent HE and Sirius Red staining. […]

Weight, 0 week | Food intake, 1 week | Weight, 1 week | Food intake, 2 weeks | Weight, 2 weeks | Food intake, 3 weeks | Weight, 3 weeks | Food intake, 4 weeks | Weight, 4 week | Compound | liver weight | liver/body weight | ALT, 3 weeks | AST, 3 weeks | ALT, 4 weeks | AST, 4 weeks | HDL (blood lipid) | LDL (blood lipid) | TC (blood lipid) | TG (blood lipid) | HE score | also measured
23.78 ± 0.47 g | 3.011 ± 0.555 g | 21.24 ± 0.42 g | 2.746 ± 0.466 g | 18.49 ± 0.41 g | 1.909 ± 0.215 g | 16.97 ± 0.38 g | 1.697 ± 0.027 g | 14.70 ± 0.20 g | O=C(O)c1cccc(C2CC(O)(c3cnc(OCc4c(-c5c(Cl)cccc5Cl)noc4C4CC4)cn3)C2)c1 (stereo not drawn) [TM-01, 3-(3-(5-(5-cyclopropyl-3-(2,6-dichlorophenyl)isoxazole-4-ylmethoxy)-2-pyrazine)-1-hydroxycyclobutane) benzoic acid] | 0.89 ± 0.05 g | 6.32 ± 0.26 % | 41.58 ± 10.32 U/L | 53.50 ± 19.62 U/L | 14.28 ± 13.21 U/L | 40.36 ± 26.31 U/L | 0.59 ± 0.11 mmol/L | 2.61 ± 0.26 mmol/L | 0.95 ± 0.44 mmol/L | 0.53 ± 0.10 mmol/L | 1 | Sirius red staining area: 0.365 ± 0.069 %; liver TC: 34.9 ± 8.2 µmol/g protein; liver TG: 247 ± 54.1 µmol/g protein; blood lipid levels (in words): different reductions in blood lipids; liver triglyceride and cholesterol content (in words): significant lowering effect on liver triglyceride and cholesterol levels; liver weight and liver/body weight (in words): significantly increases mouse liver weight and liver/body weight; ALT and AST compared to the model group (in words): significantly reduced
23.71 ± 0.35 g | 2.190 ± 0.504 g | 21.52 ± 0.42 g | 2.400 ± 0.288 g | 18.81 ± 0.49 g | 1.688 ± 0.266 g | 16.69 ± 0.34 g | 1.518 ± 0.376 g | 15.48 ± 0.35 g | O=C(O)c1cccc(N2CC(O)(c3cnc(OCc4c(-c5c(Cl)cccc5Cl)noc4C4CC4)cn3)C2)c1 [TM-02, 3-(3-(5-((5-cyclopropyl-3-(2,6-dichlorophenyl)isoxazol-4-yl)methoxy)pyrazine-2-yl)-3-hydroxyazetidin-1-yl) benzoic acid] | 0.85 ± 0.05 g | 5.48 ± 0.28 % | 183.36 ± 29.85 U/L | 113.46 ± 13.79 U/L | 90.68 ± 42.13 U/L | 83.24 ± 12.08 U/L | 0.61 ± 0.02 mmol/L | 2.93 ± 0.12 mmol/L | 1.25 ± 0.14 mmol/L | 0.57 ± 0.06 mmol/L | 1.4 | Sirius red staining area: 0.398 ± 0.030%; liver TC: 41.7 ± 5.73 µmol/g protein; liver TG: 307 ± 26.3 µmol/g protein; blood lipid levels (in words): different reductions in blood lipids; liver triglyceride and cholesterol content (in words): different lowering effects; liver weight and liver/body weight (in words): significantly increases mouse liver weight and liver/body weight; ALT and AST compared to the model group (in words): showing the same way as the obeticholic acid group
23.75 ± 0.27 g | 2.356 ± 0.213 g | 21.36 ± 0.27 g | 2.664 ± 0.194 g | 18.29 ± 0.28 g | 2.093 ± 0.250 g | 16.41 ± 0.25 g | 1.932 ± 0.137 g | 15.70 ± 0.22 g | CC(C)c1onc(-c2c(Cl)cccc2Cl)c1COc1cnc(C2(O)CC(c3cccc(C(=O)O)c3)C2)cn1 (stereo not drawn) [TM-06, 3-(3-(5-(5-isopropyl-3-(2,6-dichlorophenyl)isoxazole-4-ylmethoxy)-2-pyrazine)-1-hydroxycyclobutane) benzoic acid] | 0.67 ± 0.03 g | 4.23 ± 0.13 % | 48.97 ± 26.07 U/L | 52.14 ± 18.73 U/L | 49.13 ± 33.04 U/L | 45.23 ± 13.21 U/L | 0.42 ± 0.06 mmol/L | 3.01 ± 0.09 mmol/L | 0.97 ± 0.16 mmol/L | 0.59 ± 0.02 mmol/L | 1.6 | Sirius red staining area: 0.421 ± 0.081%; liver TC: 38.2 ± 35 µmol/g protein; liver TG: 304 ± 46.5 µmol/g protein; blood lipid levels (in words): different reductions in blood lipids; liver triglyceride and cholesterol content (in words): different lowering effects; liver weight and liver/body weight (in words): significantly increases mouse liver weight and liver/body weight; ALT and AST compared to the model group (in words): significantly reduced
23.60 ± 0.29 g | 2.364 ± 0.186 g | 21.26 ± 0.34 g | 2.707 ± 0.187 g | 19.29 ± 0.39 g | 2.284 ± 0.342 g | 17.18 ± 0.31 g | 2.109 ± 0.661 g | 15.90 ± 0.31 g | Cc1cc(C(=O)O)cc(C2CC(O)(c3cnc(OCc4c(-c5c(Cl)cccc5Cl)noc4C(C)C)cn3)C2)c1 (stereo not drawn) [TM-09, 3-(3-(5-((3-(2,6-dichlorophenyl)-5-isopropylisoxazol-4-yl)methoxy)pyrazine-2-yl)-3-hydroxycyclobutyl)-5-methyl benzoic acid] | 0.74 ± 0.04 g | 4.98 ± 0.25 % | 40.27 ± 21.48 U/L | 45.04 ± 12.08 U/L | 14.30 ± 4.19 U/L | 38.40 ± 4.19 U/L | 0.56 ± 0.02 mmol/L | 2.52 ± 0.07 mmol/L | 0.86 ± 0.09 mmol/L | 0.54 ± 0.04 mmol/L | 1.1 | Sirius red staining area: 0.392 ± 0.057 %; liver TC: 37.7 ± 3.65 µmol/g protein; liver TG: 232 ± 18.4 µmol/g protein; blood lipid levels (in words): different reductions in blood lipids; liver triglyceride and cholesterol content (in words): significant lowering effect on liver triglyceride and cholesterol levels; liver weight and liver/body weight (in words): significantly increases mouse liver weight and liver/body weight; ALT and AST compared to the model group (in words): significantly reduced
